This is an account of results in patent US4058624A, “Broad spectrum antibacterial compositions containing tris (hydroxymethyl)-aminomethane and diphenyl and loweralkyl substituted diphenyl polyamines” (Merck & Co., Inc., priority 1976, dated 1977).

Structures are written as SMILES.

As usually defined, the LD50 is the dose at which mortality reaches 50%. High values mean lower toxicity, low ones greater toxicity.

This series is described as follows: Acute toxicity, oral LD50 mice (Table I). The conditions noted are these: mouse, in vivo. The text has this: The low toxicity of these compounds makes them especially attractive for use where contact with skin surfaces or possible ingestion renders the use of irritating or toxic materials inadvisable.
As for `Cc1cc(C)c(CCC(CCc2c(C)cc(C)cc2C)NCCCNCCCN)c(C)c1.Cl.Cl.Cl` [1-[1,5-di-(2,4,6-trimethylphenyl)-3-pentyl]-1,5,9-triazanonane trihydrochloride], the LD50 came to 1150 mg/kg.
As to `CC(C)(C)c1ccc(CCCC(CCCc2ccc(C(C)(C)C)cc2)NCCCNCCCNCCCN)cc1.Cl.Cl.Cl.Cl` [1-[1,7-bis-(4-t-butylphenyl)-4-heptyl]-1,5,9,13-tetrazatridecane tetrahydrochloride], the LD50 stood at 1550 mg/kg.
In turn, `Cc1ccc(C(C)(C)C)cc1CCCC(CCCc1cc(C(C)(C)C)ccc1C)NCCNCCNCCN.Cl.Cl.Cl.Cl` [1-[1,7-di-(2-methyl-5-t-butylphenyl)-4-heptyl]-1,4,7,10-tetrazadecane tetrahydrochloride] displayed a 50% lethal dose (LD50) of 2070 mg/kg.
Consider `Cc1ccc(C(C)(C)C)cc1CCCC(CCCc1cc(C(C)(C)C)ccc1C)NCCCNCCCN.Cl.Cl.Cl` [1-[1,7-di-(2-methyl-5-t-butylphenyl)-4-heptyl]-1,5,9-triazanonane trihydrochloride], for which the LD50 turned out to be 1650 mg/kg.
